This assay relates to BDF1 mice, P388 leukemia ip, median survival T/C. Nature of the assay: NCI In Vivo Anticancer Drug Screen. Data for tumor model P388 Leukemia (intraperitoneal) in B6D2F1 (BDF1) mice. To be noted: endpoint: median survival time, higher = longer survival. The procedure, abridged:
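In tumour-bearing mice, survival after compound treatment is set against the vehicle group and given as a quotient.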

Setting [1] is: dose: 100.0 mg/kg/injection, schedule: Q04DX003 (ip), vehicle: saline.
The mark [2] stands for this setting: dose: 132.0 mg/kg/injection, schedule: Q04DX003 (ip), vehicle: saline.
Where [3] appears, read: dose: 300.0 mg/kg/injection, schedule: Q04DX003 (ip), vehicle: saline.
Where [4] appears, read: dose: 12.5 mg/kg/injection, schedule: Q01DX009 (ip), vehicle: Klucel (hydroxypropylcellulose) (HPC).
Setting [5] is: dose: 25.0 mg/kg/injection, schedule: Q01DX009 (ip), vehicle: Klucel (hydroxypropylcellulose) (HPC).
Where [6] appears, read: dose: 50.0 mg/kg/injection, schedule: Q01DX009 (ip), vehicle: Klucel (hydroxypropylcellulose) (HPC).

Our source for the T/C values is PubChem BioAssay AID328 (DTP/NCI, 2004).

Several values for one entry are separate records, joined by “and”; a condition that tells them apart may be missing. Equal values may be shown once. Inconclusive results and toxic doses are left out.

For `O=C(O)c1c2c(nc3ccccc13)Cc1ccccc1-2`, the T/C (dose: 12.5 mg/kg/injection, schedule: Q01DX009 (ip), vehicle: water) is 96 % of control and 97 % of control; the T/C (dose: 25.0 mg/kg/injection, schedule: Q01DX009 (ip), vehicle: saline) is 111 % of control; the T/C (dose: 25.0 mg/kg/injection, schedule: Q01DX009 (ip), vehicle: water) is 88 % of control and 114 % of control; the T/C (dose: 50.0 mg/kg/injection, schedule: Q01DX009 (ip), vehicle: saline) is 110 % of control; the T/C (dose: 50.0 mg/kg/injection, schedule: Q01DX009 (ip), vehicle: water) is 119 % of control; the T/C (dose: 90.0 mg/kg/injection, schedule: Q01DX009 (ip), vehicle: Klucel (hydroxypropylcellulose) (HPC)) was 163 % of control. For the same molecule, the T/C runs as follows: (dose: 100.0 mg/kg/injection, schedule: Q01DX009 (ip), vehicle: water) 173 % of control and 176 % of control; (dose: 133.0 mg/kg/injection, schedule: Q01DX009 (ip), vehicle: Klucel (hydroxypropylcellulose) (HPC)) 186 % of control; (dose: 200.0 mg/kg/injection, schedule: Q01DX009 (ip), vehicle: Klucel (hydroxypropylcellulose) (HPC)) 163 % of control; (dose: 200.0 mg/kg/injection, schedule: Q01DX009 (ip), vehicle: water) 187 % of control.

For the molecule `S=C(S)NCCNC(=S)S`, the T/C reads like this: (dose: 40.0 mg/kg/injection, schedule: Q01DX009 (ip), vehicle: saline) 120 % of control; (dose: 60.0 mg/kg/injection, schedule: Q01DX009 (ip), vehicle: saline) 108 % of control; (dose: 85.0 mg/kg/injection, schedule: Q04DX003 (ip), vehicle: saline) 109 % of control; (dose: 88.0 mg/kg/injection, schedule: Q01DX009 (ip), vehicle: saline) 100 % of control; (dose: 88.0 mg/kg/injection, schedule: Q04DX003 (ip), vehicle: saline) 109 % of control; (dose: 100.0 mg/kg/injection, schedule: Q01DX009 (ip), vehicle: saline) 115 % of control. Besides, the T/C under setting [1] is 109 % of control and 118 % of control; the T/C under setting [2] was 104 % of control; the T/C (dose: 150.0 mg/kg/injection, schedule: Q01DX009 (ip), vehicle: saline) was 115 % of control; the T/C under setting [3] was 109 % of control; the T/C (dose: 350.0 mg/kg/injection, schedule: Q01DX009 (ip), vehicle: saline) is 120 % of control; the T/C (dose: 400.0 mg/kg/injection, schedule: Q04DX003 (ip), vehicle: saline) is 100 % of control and 118 % of control.

Turning to `C=CCNc1ccc(C)cc1`, the T/C reads like this: under setting [4], 110 % of control; under setting [5], 116 % of control; under setting [6], 116 % of control; (dose: 100.0 mg/kg/injection, schedule: Q01DX009 (ip), vehicle: saline with Tween-80) 122 % of control.

With `C=CC(=O)Oc1ccc(Cl)cc1`, the T/C runs as follows: (dose: 12.5 mg/kg/injection, schedule: Q04DX003 (ip), vehicle: saline with Tween-80) 100 % of control; (dose: 25.0 mg/kg/injection, schedule: Q04DX003 (ip), vehicle: saline with Tween-80) 104 % of control; (dose: 50.0 mg/kg/injection, schedule: Q04DX003 (ip), vehicle: saline with Tween-80) 118 % of control.

In the case of `CC[CH2][Sn]([Cl])([Cl])[CH2]CC`, the T/C was 100 % of control (dose: 0.1 mg/kg/injection, schedule: Q01DX009 (ip), vehicle: Klucel (hydroxypropylcellulose) (HPC)); 113 % of control (dose: 0.2 mg/kg/injection, schedule: Q01DX009 (ip), vehicle: Klucel (hydroxypropylcellulose) (HPC)); 90 % of control (dose: 0.25 mg/kg/injection, schedule: Q01DX009 (ip), vehicle: Klucel (hydroxypropylcellulose) (HPC)); 113 % of control (dose: 0.4 mg/kg/injection, schedule: Q01DX009 (ip), vehicle: Klucel (hydroxypropylcellulose) (HPC)); 100 % of control (dose: 0.5 mg/kg/injection, schedule: Q01DX009 (ip), vehicle: Klucel (hydroxypropylcellulose) (HPC)); 113 % of control (dose: 1.0 mg/kg/injection, schedule: Q01DX009 (ip), vehicle: Klucel (hydroxypropylcellulose) (HPC)). Besides, under “dose: 2.0 mg/kg/injection, schedule: Q01DX009 (ip), vehicle: Klucel (hydroxypropylcellulose) (HPC)”, the T/C was 122 % of control.

As to `S=c1c(S)c(S)c1=S`, the T/C (dose: 100.0 mg/kg/injection, schedule: Q04DX002 (ip), vehicle: saline) was 100 % of control; the T/C (dose: 200.0 mg/kg/injection, schedule: Q04DX002 (ip), vehicle: saline) is 100 % of control; the T/C (dose: 400.0 mg/kg/injection, schedule: Q04DX002 (ip), vehicle: saline) was 100 % of control.

Turning to `O=[N+]([O-])c1cnc2ccnn2c1`, the T/C is, setting by setting: under setting [4], 100 % of control; under setting [5], 100 % of control; under setting [6], 100 % of control; (dose: 100.0 mg/kg/injection, schedule: Q01DX009 (ip), vehicle: Klucel (hydroxypropylcellulose) (HPC)) 95 % of control.

With `c1ccc(C2=C(c3ccccc3)c3cccc4cccc2c34)cc1`, the T/C was 95 % of control and 110 % of control (dose: 100.0 mg/kg/injection, schedule: Q01DX001 (ip), vehicle: Klucel (hydroxypropylcellulose) (HPC)); 115 % of control (dose: 100.0 mg/kg/injection, schedule: Q04DX003 (ip), vehicle: Klucel (hydroxypropylcellulose) (HPC)); 105 % of control (dose: 200.0 mg/kg/injection, schedule: Q01DX001 (ip), vehicle: Klucel (hydroxypropylcellulose) (HPC)); 120 % of control (dose: 200.0 mg/kg/injection, schedule: Q04DX003 (ip), vehicle: Klucel (hydroxypropylcellulose) (HPC)); 95 % of control and 105 % of control (dose: 400.0 mg/kg/injection, schedule: Q01DX001 (ip), vehicle: Klucel (hydroxypropylcellulose) (HPC)); 110 % of control (dose: 400.0 mg/kg/injection, schedule: Q04DX003 (ip), vehicle: Klucel (hydroxypropylcellulose) (HPC)).

For the molecule `CC1CN1c1nc(N2CC2C)nc(N2CC2C)n1` (configuration not stated), the T/C (dose: 3.0 mg/kg/injection, schedule: Q01DX009 (ip), vehicle: saline) is 104 % of control; the T/C (dose: 3.0 mg/kg/injection, schedule: Q04DX003 (ip), vehicle: saline) is 109 % of control; the T/C (dose: 6.0 mg/kg/injection, schedule: Q01DX009 (ip), vehicle: saline) was 112 % of control; the T/C (dose: 6.0 mg/kg/injection, schedule: Q04DX003 (ip), vehicle: saline) was 109 % of control; the T/C (dose: 12.0 mg/kg/injection, schedule: Q04DX003 (ip), vehicle: saline) is 114 % of control; the T/C (dose: 12.5 mg/kg/injection, schedule: Q04DX003 (ip), vehicle: saline) was 120 % of control.

For the molecule `CN[C@H]1CCc2cc(OC)c(OC)c(OC)c2-c2ccc(OC)c(=O)cc21`, the T/C is 104 % of control (dose: 0.63 mg/kg/injection, schedule: Q01DX010 (ip), vehicle: saline); 117 % of control (dose: 1.25 mg/kg/injection, schedule: Q01DX009 (ip), vehicle: saline); 122 % of control (dose: 1.25 mg/kg/injection, schedule: Q01DX010 (ip), vehicle: saline); 122 % of control (dose: 2.5 mg/kg/injection, schedule: Q01DX010 (ip), vehicle: saline); 150 % of control (dose: 5.0 mg/kg/injection, schedule: Q01DX010 (ip), vehicle: saline); 93 % of control (dose: 10.0 mg/kg/injection, schedule: Q01DX009 (ip), vehicle: saline).

For the molecule `COCCOP(=O)(N1CC1)N1CC1`, the T/C by setting is: (dose: 33.0 mg/kg/injection, schedule: Q04DX003 (ip), vehicle: saline) 190 % of control; (dose: 50.0 mg/kg/injection, schedule: Q04DX003 (ip), vehicle: saline) 236 % of control; (dose: 75.0 mg/kg/injection, schedule: Q04DX003 (ip), vehicle: saline) 272 % of control; under setting [1], 118 % of control.

Take `O=C(O)c1ccc(NC(=O)C(F)(F)F)cc1`: the T/C is 86 % of control (dose: 25.0 mg/kg/injection, schedule: Q04DX003 (ip), vehicle: saline sonified) and 95 % of control (dose: 100.0 mg/kg/injection, schedule: Q04DX003 (ip), vehicle: saline sonified).

For `CS(=O)(=O)Nc1ccc(Nc2c3ccccc3nc3cc(Cl)ccc23)cc1`, the T/C is 100 % of control (dose: 9.6 mg/kg/injection, schedule: Q04DX003 (ip), vehicle: Klucel (hydroxypropylcellulose) (HPC)); 104 % of control (dose: 14.0 mg/kg/injection, schedule: Q04DX003 (ip), vehicle: Klucel (hydroxypropylcellulose) (HPC)); 260 % of control and 195 % of control under setting [2]; 272 % of control and 205 % of control (dose: 200.0 mg/kg/injection, schedule: Q04DX003 (ip), vehicle: saline); 259 % of control under setting [3].
